Results on six compounds are retold here after patent US20120196791A1, “COMBINATION THERAPIES USING ANTIBACTERIAL AMINOGLYCOSIDE COMPOUNDS” (Achaogen, Inc., priority 2009, published 2012).

Read-outs that look alike come from different tables or passages of the source.

The test system of one assay is P. aeruginosa strains. Kind of assay: MIC by macrodilution. The settings on record: Pseudomonas aeruginosa. The format is cell-based. The source says: (§1) “MIC”, which stands for minimum inhibitory concentration, refers to that concentration, in μg/mL, of a compound of this invention that inhibits the growth and/or proliferation of a strain of bacteria by at least 80% compared to an untreated control as determined by visual inspection of a liquid culture.
Synergy time-kill was used to test the activity of Example 1, alone and in combination with cefepime, doripenem, imipenem and piperacillin/tazobactam, against 10 P. aeruginosa strains. The 10 clinical isolates included 5 cefepime resistant, 5 doripenem resistant, 8 imipenem resistant, and 9 piperacillin/tazobactam resistant strains. MICs were determined by macrodilution and time-kill was used to verify the activity of all five agents alone. MICs were predetermined by macrodilution in cation-adjusted Mueller-Hinton broth (BBL Microbiology Systems, Cockeysville, Md.) according to standard methodology. All strains were tested by time-kill methodology with each compound alone according to standard methods. Strains were examined by PCR for genes encoding aminoglycoside modifying enzymes (AMEs). Cultures were initiated by adding 35-μL aliquots of suspensions into 5 mL of broth. Viability counts (100-μL aliquots) in synergy tests were performed at 0, 3, 6, 12, and 24 h in a shaking water bath at 35° C. with final inocula of between 5×10^5 and 5×10^6 CFU/mL. Only plates with 30 to 300 colonies were counted.

A further assay concerns S. aureus strains. Kind of assay: MIC by macrodilution. The format is cell-based. As to conditions: Staphylococcus aureus.
From the text: as §1
Synergy time-kill was used to test the activity of Example 1, alone and in combination with daptomycin (DAP), ceftobiprole (BPR), and linezolid (LZD), against 25 S. aureus strains. 25 clinical isolates included 2 hVISA, 2 VISA, and 5 VRSA, 10 hospital acquired and 6 community acquired MRSA strains. MICs were determined by macrodilution and time-kill was used to verify the activity of all four agents alone. MICs were predetermined by macrodilution in cation-adjusted Mueller-Hinton broth (BBL Microbiology Systems, Cockeysville, Md.) according to standard methodology. Daptomycin susceptibility testing was performed in Mueller-Hinton broth adjusted to 50 μg/mL of calcium according to standard methodology. All strains were tested by time-kill methodology with each compound alone according to standard methods. Cultures were initiated by adding 35-μL aliquots of suspensions into 5 mL of broth. Viability counts (100-μL aliquots) in synergy tests were performed at 0, 3, 6, 12, and 24 h in a shaking water bath at 35° C. with final inocula of between 5×10^5 and 5×10^6 CFU/mL. Only plates with 30 to 300 colonies were counted.

The mark [1] stands for this setting: range over 10 P. aeruginosa strains, read-out: MICs of each agent alone.
Where [2] appears, read: ATCC 33591 / MRSA, Strain 13, ATCC33591 HA-MRSA, read-out: MIC.
Setting [3] is: MRSA, Strain 6, CA-MRSA, PVL+, read-out: MIC.
Setting [4] is: MRSA, Strain 7, CA-MRSA, PVL+, read-out: MIC.
The mark [5] stands for this setting: MRSA, Strain 8, CA-MRSA, PVL+, read-out: MIC.
Setting [6] is: MRSA, Strain 14, HA-MRSA, read-out: MIC.
The mark [7] stands for this setting: MRSA, Strain 15, HA-MRSA, read-out: MIC.
Setting [8] is: MRSA, Strain 16, HA-MRSA, read-out: MIC.
The mark [9] stands for this setting: MRSA, Strain 17, HA-MRSA, read-out: MIC.
The mark [10] stands for this setting: MRSA, Strain 18, HA-MRSA, read-out: MIC.
[11] abbreviates: MRSA, Strain 19, HA-MRSA, read-out: MIC.
[12] abbreviates: MRSA, Strain 20, HA-MRSA, read-out: MIC.
The mark [13] stands for this setting: MRSA, Strain 21, HA-MRSA, read-out: MIC.
Setting [14] is: MRSA, Strain 22, HA-MRSA, read-out: MIC.
Setting [15] is: MRSA, Strain 23, CA-MRSA PVL+, read-out: MIC.
The mark [16] stands for this setting: MRSA, Strain 24, CA-MRSA PVL+, read-out: MIC.
[17] abbreviates: MRSA, Strain 25, CA-MRSA PVL neg, read-out: MIC.
Setting [18] is: Strain 10, hVISA, read-out: MIC.
Where [19] appears, read: VISA, Strain 11, VISA, read-out: MIC.
The mark [20] stands for this setting: VISA, Strain 12, VISA, read-out: MIC.
[21] abbreviates: VRSA, Strain 1, VRSA, read-out: MIC.
Where [22] appears, read: VRSA, Strain 2, VRSA, read-out: MIC.
The mark [23] stands for this setting: VRSA, Strain 3, VRSA, read-out: MIC.
[24] abbreviates: VRSA, Strain 4, VRSA, read-out: MIC.
[25] abbreviates: VRSA, Strain 5, VRSA, read-out: MIC.
[26] abbreviates: range over 25 S. aureus strains, read-out: MICs of each agent alone.

Turning to `CO/N=C(\C(=O)N[C@@H]1C(=O)N2C(C(=O)[O-])=C(C[N+]3(C)CCCC3)CS[C@H]12)c1csc(N)n1` [Cefepime, cefepime], the MIC is 256 µg/mL in the assay on P. aeruginosa strains; 16 µg/mL with P. aeruginosa strains (Strain 1, read-out: MIC); 4 µg/mL in the assay with P. aeruginosa strains (Strain 2, read-out: MIC); 8 µg/mL in the assay with P. aeruginosa strains (Strain 3, read-out: MIC); 8 µg/mL with P. aeruginosa strains (Strain 4, read-out: MIC); 32 µg/mL in the assay with P. aeruginosa strains (Strain 5, read-out: MIC). Also, the MIC in the assay on P. aeruginosa strains (Strain 6, read-out: MIC) was 1 µg/mL; in the assay on P. aeruginosa strains (Strain 7, read-out: MIC), 16 µg/mL; in the assay with P. aeruginosa strains (Strain 8, read-out: MIC), 4 µg/mL; with P. aeruginosa strains (Strain 9, read-out: MIC), 32 µg/mL; in the assay with P. aeruginosa strains (setting [1]), 1 to 256 µg/mL.

`Nc1nc(/C(=N/O)C(=O)N[C@@H]2C(=O)N3C(C(=O)O)=C(/C=C4\CCN([C@@H]5CCNC5)C4=O)CS[C@H]23)ns1` [Ceftobiprole, ceftobiprole]: the MIC with S. aureus strains (setting [2]) was determined as 2 µg/mL; in the assay on S. aureus strains (setting [3]), 1 µg/mL; in the assay with S. aureus strains (setting [4]), 1 µg/mL; in the assay with S. aureus strains (setting [5]) it was 1 µg/mL; in the assay with S. aureus strains (setting [6]), 2 µg/mL; in the assay on S. aureus strains (setting [7]), 1 µg/mL. Also, the MIC in the assay with S. aureus strains (setting [8]) was determined as 2 µg/mL; in the assay with S. aureus strains (setting [9]) it was 2 µg/mL; in the assay on S. aureus strains (setting [10]), 1 µg/mL; with S. aureus strains (setting [11]) it was 1 µg/mL; in the assay on S. aureus strains (setting [12]), 2 µg/mL; in the assay on S. aureus strains (setting [13]), 1 µg/mL. Besides, the MIC stood at 2 µg/mL in the assay with S. aureus strains (setting [14]); 1 µg/mL with S. aureus strains (setting [15]); 1 µg/mL in the assay on S. aureus strains (setting [16]); 2 µg/mL in the assay on S. aureus strains (setting [17]); 2 µg/mL in the assay with S. aureus strains (Strain 9, hVISA, read-out: MIC); 2 µg/mL with S. aureus strains (setting [18]). Also, the MIC was found to be 1 µg/mL in the assay with S. aureus strains (setting [19]); 0.5 µg/mL in the assay on S. aureus strains (setting [20]); 1 µg/mL in the assay with S. aureus strains (setting [21]); 1 µg/mL with S. aureus strains (setting [22]); 2 µg/mL in the assay on S. aureus strains (setting [23]); 2 µg/mL in the assay on S. aureus strains (setting [24]). In addition, the MIC with S. aureus strains (setting [25]) was 0.5 µg/mL; in the assay with S. aureus strains (setting [26]), 0.5 to 2 µg/mL.

For `CCCCCCCCCC(=O)N[C@@H](Cc1c[nH]c2ccccc12)C(=O)N[C@H](CC(N)=O)C(=O)N[C@@H](CC(=O)O)C(=O)N[C@@H]1C(=O)NCC(=O)N[C@@H](CCCN)C(=O)N[C@@H](CC(=O)O)C(=O)N[C@H](C)C(=O)N[C@@H](CC(=O)O)C(=O)NCC(=O)N[C@H](CO)C(=O)N[C@@H]([C@H](C)CC(=O)O)C(=O)N[C@@H](CC(=O)c2ccccc2N)C(=O)O[C@@H]1C` [Daptomycin, daptomycin], the MIC with S. aureus strains (setting [2]) worked out at 0.5 µg/mL; in the assay with S. aureus strains (setting [3]), 0.5 µg/mL; in the assay on S. aureus strains (setting [4]), 0.5 µg/mL; in the assay with S. aureus strains (setting [5]) it was 0.5 µg/mL; in the assay with S. aureus strains (setting [6]) it was 0.25 µg/mL; with S. aureus strains (setting [7]), 0.5 µg/mL. Besides, the MIC amounted to 1 µg/mL with S. aureus strains (setting [8]); 0.5 µg/mL in the assay on S. aureus strains (setting [9]); 0.5 µg/mL in the assay with S. aureus strains (setting [10]); 0.5 µg/mL with S. aureus strains (setting [11]); 0.5 µg/mL in the assay with S. aureus strains (setting [12]); 0.5 µg/mL in the assay on S. aureus strains (setting [13]). The MIC in the assay with S. aureus strains (setting [14]) stood at 0.5 µg/mL; in the assay with S. aureus strains (setting [15]), 1 µg/mL; with S. aureus strains (setting [16]), 0.5 µg/mL; in the assay on S. aureus strains (setting [17]) it was 0.5 µg/mL; in the assay on S. aureus strains (Strain 9, hVISA, read-out: MIC), 1 µg/mL; in the assay with S. aureus strains (setting [18]), 0.5 µg/mL. Moreover, the MIC came out at 4 µg/mL in the assay with S. aureus strains (setting [19]); 2 µg/mL with S. aureus strains (setting [20]); 0.5 µg/mL with S. aureus strains (setting [21]); 0.25 µg/mL in the assay on S. aureus strains (setting [22]); 0.5 µg/mL in the assay on S. aureus strains (setting [23]); 0.5 µg/mL with S. aureus strains (setting [24]). The MIC was 0.25 µg/mL with S. aureus strains (setting [25]) and 0.25 to 4 µg/mL in the assay with S. aureus strains (setting [26]).

In the case of `C[C@@H](O)[C@H]1C(=O)N2C(C(=O)O)=C(S[C@@H]3CN[C@H](CNS(N)(=O)=O)C3)[C@H](C)[C@H]12` [Doripenem, doripenem], the MIC in the assay with P. aeruginosa strains (Strain 1, read-out: MIC) stood at 2 µg/mL; in the assay with P. aeruginosa strains (Strain 2, read-out: MIC), 0.25 µg/mL; in the assay on P. aeruginosa strains (Strain 3, read-out: MIC), 4 µg/mL; with P. aeruginosa strains (Strain 4, read-out: MIC), 2 µg/mL; in the assay with P. aeruginosa strains (Strain 5, read-out: MIC), 8 µg/mL; with P. aeruginosa strains (Strain 6, read-out: MIC) it was 0.5 µg/mL. The MIC with P. aeruginosa strains (Strain 7, read-out: MIC) was 8 µg/mL; in the assay with P. aeruginosa strains (Strain 8, read-out: MIC), 2 µg/mL; in the assay on P. aeruginosa strains (Strain 9, read-out: MIC) it was 32 µg/mL; in the assay on P. aeruginosa strains (Strain 10, read-out: MIC), 8 µg/mL; in the assay on P. aeruginosa strains (setting [1]), 0.25 to 32 µg/mL.

Take `C[C@@H](O)[C@H]1C(=O)N2C(C(=O)O)=C(SCCN=CN)C[C@H]12` [Imipenem, imipenem]: the MIC in the assay on P. aeruginosa strains (Strain 1, read-out: MIC) came out at 8 µg/mL; in the assay on P. aeruginosa strains (Strain 2, read-out: MIC) it was 2 µg/mL; with P. aeruginosa strains (Strain 3, read-out: MIC), 8 µg/mL; with P. aeruginosa strains (Strain 4, read-out: MIC), 16 µg/mL; in the assay on P. aeruginosa strains (Strain 5, read-out: MIC) it was 32 µg/mL; with P. aeruginosa strains (Strain 6, read-out: MIC) it was 0.25 µg/mL. The MIC in the assay on P. aeruginosa strains (Strain 7, read-out: MIC) was 4 µg/mL; in the assay on P. aeruginosa strains (Strain 8, read-out: MIC), 4 µg/mL; in the assay with P. aeruginosa strains (Strain 9, read-out: MIC), 32 µg/mL; with P. aeruginosa strains (Strain 10, read-out: MIC), 32 µg/mL; in the assay on P. aeruginosa strains (setting [1]), 0.25 to 32 µg/mL.

As to `CC(=O)NC[C@H]1CN(c2ccc(N3CCOCC3)c(F)c2)C(=O)O1` [Linezolid, linezolid], the MIC is 2 µg/mL in the assay with S. aureus strains (setting [2]); 4 µg/mL in the assay on S. aureus strains (setting [3]); 4 µg/mL with S. aureus strains (setting [4]); 2 µg/mL with S. aureus strains (setting [5]); 4 µg/mL with S. aureus strains (setting [6]); 4 µg/mL in the assay on S. aureus strains (setting [7]). In addition, the MIC in the assay on S. aureus strains (setting [8]), in the assay on S. aureus strains (setting [9]), in the assay on S. aureus strains (setting [10]), in the assay on S. aureus strains (setting [11]), with S. aureus strains (setting [12]) and in the assay with S. aureus strains (setting [13]) was 4 µg/mL each time. Also, the MIC in the assay with S. aureus strains (setting [14]) turned out to be 4 µg/mL; with S. aureus strains (setting [15]), 4 µg/mL; with S. aureus strains (setting [16]), 4 µg/mL; with S. aureus strains (setting [17]) it was 4 µg/mL; in the assay with S. aureus strains (Strain 9, hVISA, read-out: MIC), 4 µg/mL; in the assay with S. aureus strains (setting [18]) it was 2 µg/mL. Moreover, the MIC in the assay on S. aureus strains (setting [19]) was found to be 2 µg/mL; in the assay on S. aureus strains (setting [20]), 4 µg/mL; with S. aureus strains (setting [21]), 2 µg/mL; in the assay with S. aureus strains (setting [22]), 4 µg/mL; in the assay on S. aureus strains (setting [23]) it was 2 µg/mL; in the assay on S. aureus strains (setting [24]) it was 4 µg/mL. Further, the MIC in the assay on S. aureus strains (setting [25]) was 2 µg/mL; in the assay with S. aureus strains (setting [26]), 2 to 4 µg/mL.
